A value given as a limit tells only on which side of the number the result lay.

This assay has as its target Cannabinoid receptor 2 (Homo sapiens, UniProt P34972). Kind of assay: Inverse agonist activity at human CB2 receptor expressed in HEK293 cells assessed as forskolin-stimulated cAMP accumulation after 30 mins by HTRF assay. On the technique in general: Changes in cAMP serve as a functional read-out for many G protein-coupled receptors.

Chain of Cannabinoid receptor 2 (P34972 whole entry): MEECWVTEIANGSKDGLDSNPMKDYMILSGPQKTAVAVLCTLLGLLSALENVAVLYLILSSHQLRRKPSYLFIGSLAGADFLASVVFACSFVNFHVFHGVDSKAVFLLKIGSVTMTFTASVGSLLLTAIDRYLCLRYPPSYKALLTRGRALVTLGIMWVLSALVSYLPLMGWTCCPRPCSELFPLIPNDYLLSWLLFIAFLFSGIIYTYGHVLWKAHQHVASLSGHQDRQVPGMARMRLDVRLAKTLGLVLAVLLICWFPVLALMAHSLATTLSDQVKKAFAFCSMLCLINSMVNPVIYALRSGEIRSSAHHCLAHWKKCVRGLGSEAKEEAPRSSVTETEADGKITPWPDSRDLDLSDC

For the molecule `Nc1nc(NC2CCN(S(=O)(=O)C(F)(F)F)CC2)c2cc(C(c3ccc(Cl)cc3)c3ccc(Cl)cc3)ccc2n1` [US9682955, 107], the EC50 was > 10 µM.

The EC50 is the concentration needed to bring the measured effect to its halfway point.

The record behind these values is BindingDB's records for doi:10.1021/acsmedchemlett.0c00495 (Janssen Research & Development, 2020).
